We go through 2 molecules from US20150368620A1, “METHOD OF DETACHING ADHERENT CELLS FOR FLOW CYTOMETRY” (KING ABDULLAH UNIVERSITY OF SCIENCE AND TECHNOLOGY, priority 2013, published 2015).

For one series, the system named is BJ, MCF-7 and HeLa cells. The following applies: untreated cells lifted with EDTA, APOPercentage staining. On the procedure:
(§1) In one method, five thousand cells were plated per well in 45 μl of media in 96-well plate. The cells were shaken at 750 rpm with an Orbital shaker for 20 seconds and allowed to settle for 16-24 hrs in 5% CO2 incubator at 37° C. A desired concentration of drug was added to cells in a volume of […] to make the final volume per well up to 50 μl. The cells and drug were mixed at 750 rpm with an Orbital shaker for 20 seconds and incubated again for desired period of time. Twelve microliters of 15 mM EDTA pH 6.14 (upto 20 mM can be added depending on the cell line) were added per well, mixed at 750 rpm with an Orbital shaker for 20 seconds and incubated at 37° C. for 45 min to 1 hour (until cells lift). Fifteen microliters of media containing 1 μl APOPercentage dye was added to the cells and incubated for 15-20 min at 37° C. The cells were analyzed on flow cytometer setting a threshold for FSC-H of 80,000, cytometer speed at medium (2 μl/sec), peristaltic pump speed at 23 rpm, shaking on 1800 rpm, gating on 2D plot of FSC vs SSC and a 1D plot measuring FL2-H/FL3-H on the X axis. The HTFC system was used.

Series [1] relates to HT1080 cells. The following applies: 12 μl of 15 mM EDTA pH 6.14 added to media, 37° C., 96-well. On the procedure: as §1
(§2) The following steps can be used to measure apoptosis using APOPercentage Assay in adherent cells. 5000 cells per well were plated in 45 μl of media in 96-well plate, shaken at 750 rpm with an Orbital shaker for 20 seconds, and allowed to settle 16-24 hours (h). Desired concentration of drug was added to cells in a volume of […] to make the final volume per well up to 50 μl, was shaken at 750 rpm with an Orbital shaker for 20 seconds, and was then incubated for desired period of time. 12 μl of 15 mM EDTA pH 6.14 per well was added (upto 20 mM can be added depending on the cell line). Shake at 750 rpm with an Orbital shaker for 20 seconds and incubate at 37° C. for 15 minutes (min) to 1 h (until cells lift).

In series [2] the test system is HeLa cells. The following applies: 12 μl of 15 mM EDTA pH 6.14 added to media, 37° C., 96-well. The procedure:
as §1, §2

For series [3], the system named is MCF-7 cells. The following applies: 12 μl of 15 mM EDTA pH 6.14 added to media, 37° C., 96-well. On the procedure:
as §1, §2

The subject of a further series is BJ cells. Conditions: 12 μl of 15 mM EDTA pH 6.14 added to media, 37° C., 96-well. The procedure: as §1, §2
Series [4] deals with DU145 cells. Conditions: 12 μl of 15 mM EDTA pH 6.14 added to media, 37° C., 96-well. The procedure: as §1, §2
In series [5] the test system is BT20 cells. The following applies: 12 μl of 15 mM EDTA pH 6.14 added to media, 37° C., 96-well. The procedure: 5000 cells per well were plated in 45 μl of media in 96-well plate, shaken at 750 rpm with an Orbital shaker for 20 seconds, and allowed to settle 16-24 hours (h). Desired concentration of drug was added to cells in a volume of […] to make the final volume per well up to 50 μl, was shaken at 750 rpm with an Orbital shaker for 20 seconds, and was then incubated for desired period of time. […] Shake at 750 rpm with an Orbital shaker for 20 seconds and incubate at 37° C. for 15 minutes (min) to 1 h (until cells lift).

Series [6] relates to HeLa cells. Description: Mitochondrial membrane potential (MMP) JC-1 assay by flow cytometry. Format: cell-based. The following applies: 2 μM JC-1, 100 mM H2O2 positive control, Accuri C6 HTFC, 96-well. On the procedure: (§3) The following can be the steps used to determining MMP by Flow Cytometry in adherent cells. […] Add 15 μl of serum free media containing JC-1 dye so that the final concentration is 2 μM in a total volume of 77 μl and incubate for 1-2 h at 37° C. […] 100 mM H2O2 can be used as a positive control.
(In general: Flow cytometry measures light scatter and fluorescence of single cells or particles in a stream.)

For series [7], the system named is MCF-7 cells. The description is as above. The class given is cell-based. The following applies: 2 μM JC-1, 100 mM H2O2 positive control, Accuri C6 HTFC, 96-well. On the procedure:
as §3
In FIG. […] Data was analyzed using FlowJo version 7.6.5 software. Cells were seeded at a density of 5×10^3 cells per well in a 96-well plate, the following day cells were left untreated (red) or treated with 100 mM H2O2 as a positive control (blue) for MMP disruption. DU145 cells were stained with a final concentration of 2 μM JC-1 dye (representative image). Cells were lifted with EDTA and analyzed by flow cytometry.

The test system of series [8] is HeLa cells. As to the kind of experiment: Reactive oxygen species (ROS) DCFDA assay by flow cytometry. Format: cell-based. Conditions: 10 μM DCFDA, 10 mM H2O2 positive control, Accuri C6 HTFC, 96-well. On the procedure:
(§4) Add 15 μl of serum free media and incubate for 5-10 min.
In FIG. 9, HeLa and MCF-7 Cells were analyzed by flow cytometry on an Accuri C6 to determine the level of ROS in cells. Cells were seeded at a density of 5×10^3 cells per well in a 96-well plate, the following day cells were treated with 10 mM H2O2 as a positive control for ROS and test compounds. HeLa cells were stained with a final concentration of 10 μM DCFDA dye immediately after adding H2O2 (A). After incubation cells were lifted with EDTA and analyzed by flow cytometry. Separation of untreated (yellow) and treated (purple) cells based on FL-1-H profile (A). MCF-7 cells were treated with Plumbagin and its derivative Crotonate Plumbagin for 1 h (B). A final 10 μM DCFDA was added simultaneously with Plumbagin and its derivative to cells. Following incubation with drug cells were lifted with EDTA and analyzed by flow cytometry.
In FIGS. 10A-B, MCF-7 and HeLa Cells were analyzed by flow cytometry on a BD LSRFortessa HTS to determine the level of ROS in cells. Data was analyzed using FlowJo version 7.6.5 software. Cells were seeded at a density of 5×10^3 cells per well in a 96-well plate, the following day cells were left untreated (blue peak) or treated with 10 mM H2O2 as a positive control (red peak) for ROS. […] Cells were lifted with EDTA and analyzed by flow cytometry.

Series [9] has as its system DU145 cells. Description: Mitochondrial membrane potential (MMP) JC-1 assay by flow cytometry. Format: cell-based. The following applies: 2 μM JC-1, 100 mM H2O2 positive control, Accuri C6 HTFC, 96-well. The procedure:
as §3
In FIGS. 7A-B, DU145 Cells unstained (blue), untreated (red) or treated (green) were analyzed by flow cytometry on an Accuri C6 to determine the percentage of cells with disrupted MMP. Cells were seeded at a density of 5×10^3 cells per well in 96-well plate. Following day media was removed from cells and replaced with 50 μl EDTA as a positive control for MMP disruption for 60 min. Cells were lifted with EDTA and stained with a final concentration of 2 μM JC-1 dye and analyzed by flow cytometry. Separation of unstained (blue), untreated (red) and treated (green) cells based on FL2-H and FL-1-H profile (A). 1D Histogram of unstained (blue), untreated (red) and treated (green) cells measuring fluorescence in the FL2-H channel (B).
In FIG. 8, DU145 and MCF-7 Cells were analyzed by flow cytometry on a BD LSRFortessa HTS to determine the level of MMP in cells. Data was analyzed using FlowJo version 7.6.5 software. […] Cells were lifted with EDTA and analyzed by flow cytometry.

For series [10], the system named is MCF-7 cells. Description: Reactive oxygen species (ROS) DCFDA assay by flow cytometry. Format: cell-based. Conditions: 10 μM DCFDA, 2-10 mM H2O2 positive control, Accuri C6 HTFC, 96-well. On the procedure:
as §4
In FIGS. […] Data was analyzed using FlowJo version 7.6.5 software. Cells were seeded at a density of 5×10^3 cells per well in a 96-well plate, the following day cells were left untreated (blue peak) or treated with 10 mM H2O2 as a positive control (red peak) for ROS. MCF-7 and HeLa cells were stained with a final concentration of 10 μM DCFDA dye immediately after adding H2O2 (A and B). Cells were lifted with EDTA and analyzed by flow cytometry.

Series [11] has as its system MCF-7 cells. As to the kind of experiment: APOPercentage apoptosis assay by flow cytometry. The class given is cell-based. The following applies: APOPercentage dye, 2.5 mM H2O2 positive control, Accuri C6 HTFC, 96-well. On the procedure: (§5) The HTFC system was used.
Untreated and treated MCF-7 cells were analyzed by flow cytometry on an Accuri C6 flow cytometer to determine the percentage of cells undergoing apoptosis (FIG. 3). Cells were seeded at a density of 5×10^3 cells per well in 96 well plate. Cells treated with 2.5 mM H2O2 for 30 minutes or 62 μl EDTA pH 6.14 for 15-30 min. added to cells after removing media were used as a positive control for apoptosis. The cells were lifted and stained with 1 μl APOPercentage dye. The cells were then analyzed by flow cytometry. […] FIG. 3C is a bar graph showing the percentage of non-apoptotic and apoptotic cells within the untreated or treated population of cells.
(§6) Add 15 μl of serum free media containing 1 μl APOPercentage dye and incubate for 15-20 min at 37° C. […] 2.5 mM H2O2 is used as a positive control.
In FIG. 6, MCF-7 Cells untreated (blue, left) or treated (red, right) were analyzed by flow cytometry on a BD LSRFortessa HTS flow cytometer to determine the percentage of cells undergoing apoptosis. Data was analyzed using FlowJo version 7.6.5 software. […] Cells were lifted with EDTA and stained with 1 μl APOPercentage and analyzed by flow cytometry. 1D Histogram of untreated (blue) and treated (red) cells measuring fluorescence in the PE-A channel and applying gates to delineate Non-apoptotic (blue) and Apoptotic (red) cells.

Series [12] deals with BT20 cells. Description: Reactive oxygen species (ROS) DCFDA assay by flow cytometry. The following applies: 10 μM DCFDA, 2-10 mM H2O2 positive control, Accuri C6 HTFC, 96-well. Format: cell-based. The procedure: as §4
Series [13] concerns HT1080 cells. As to the kind of experiment: APOPercentage apoptosis assay by flow cytometry. The class given is cell-based. Conditions: APOPercentage dye, 2.5 mM H2O2 positive control, Accuri C6 HTFC, 96-well. On the procedure: as §1
(§7) The following steps can be used to measure apoptosis using APOPercentage Assay in adherent cells. 5000 cells per well were plated in 45 μl of media in 96-well plate, shaken at 750 rpm with an Orbital shaker for 20 seconds, and allowed to settle 16-24 hours (h). […]

The test system of series [14] is DU145 cells. As to the kind of experiment: APOPercentage apoptosis assay by flow cytometry. The following applies: APOPercentage dye, 2.5 mM H2O2 positive control, Accuri C6 HTFC, 96-well. Format: cell-based. On the procedure:
as §1, §7

The test system of a further series is BJ fibroblast cells. Description: APOPercentage apoptosis assay by flow cytometry. The class given is cell-based. The following applies: APOPercentage dye, 2.5 mM H2O2 positive control, Accuri C6 HTFC, 96-well. On the procedure: as §5
BJ fibroblast cells were analyzed by flow cytometry on an Accuri C6 flow cytometer to determine the percentage of cells undergoing apoptosis (FIG. 2). Cells were seeded at a density of 5×10^3 cells per well in 96 well plate. Cells exposed to 2.5 mM H2O2 for 30 minutes or 62 μl EDTA pH 6.14 for 15-30 min. added to cells after removing media were used as a positive control for apoptosis. Cells were lifted and stained with 1 μl APOPercentage dye. The cells were then analyzed by flow cytometry. […] FIG. 2B includes a 1D Histogram of untreated and treated cells showing the fluorescence measured in the FL2-H channel, where gates were applied to delineate non-apoptotic and apoptotic cells. FIG. 2C is a bar graph showing the percentage of non-apoptotic and apoptotic cells that was measured within the untreated or treated (positive control) population of cells.
as §6

Series [15] relates to HeLa cells. As to the kind of experiment: APOPercentage apoptosis assay by flow cytometry. The following applies: APOPercentage dye, 2.5 mM H2O2 positive control, Accuri C6 HTFC, 96-well. The class given is cell-based. The procedure: as §5
Untreated and treated HeLa cells were also analyzed by flow cytometry on an Accuri C6 flow cytometer to determine the percentage of cells undergoing apoptosis (FIG. 4). Cells were seeded at a density of 5×10^3 cells per well in 96 well plate. Cells treated with 2.5 mM H2O2 for 30 minutes or 62 μl EDTA pH 6.14 for 15-30 min. added to cells after removing media were used as a positive control for apoptosis. Cells were lifted and stained with […] dye. The cells were then analyzed by flow cytometry. […] FIG. 4C is a bar graph showing the percentage of non-apoptotic and apoptotic cells within the untreated or treated population of cells.
as §6
Cells were seeded at a density of 5×10^3 cells per well in a 96-well plate. Following day, cells were treated with 2.5 mM H2O2 for 30 min. or 62 μl EDTA pH 6.14 for 15-30 min. added to cells after removing media as a positive control for apoptosis for 15-30 min. Cells were lifted with EDTA and stained with […] and analyzed by flow cytometry. […] 1D Histogram of untreated (blue) and treated (red) cells measuring fluorescence in the FL2-H channel and applying gates to delineate Non-apoptotic (blue) and Apoptotic (red) cells (FIG. 5B). […]

Structures are written as SMILES.

Regarding `O=C(O)CN(CCN(CC(=O)O)CC(=O)O)CC(=O)O` [EDTA, ethylenediaminetetraacetic acid], in the series with BJ, MCF-7 and HeLa cells, the “effect of cell lifting chemical on untreated cells (membrane, apoptosis)” value was “did not induce unwanted apoptosis in untreated cells”. The “Time to lift with EDTA” value in the series with HT1080 cells [1] lay within 20 to 30 min; with HeLa cells [2] it was 30 to 45 min; in the series with MCF-7 cells [3], 15 to 20 min; in the series with BJ cells it was 30 to 50 min; in the series on DU145 cells [4], 20 to 30 min; in the series on BT20 cells [5], 40 to 60 min.
`OO` [H2O2]: the “Percent cells having JC-1 green in treated positive control” value with HeLa cells [6] came to 90%; in the series with MCF-7 cells [7], 95%; in the series with DU145 cells [9] it was 90%. Moreover, the “Percent cells stained with DCFDA in treated positive control” value in the series with HeLa cells [8] came to 90%; in the series on MCF-7 cells [10], 90%; in the series with BT20 cells [12], 95%. Also, the “Percent cells stained in positive control” value in the series on MCF-7 cells [11] is on record as 85%; in the series on HT1080 cells [13], 95%; in the series on DU145 cells [14] it was 90%; in the series with BJ fibroblast cells, 90%; in the series with HeLa cells [15] it was 90%.
